Where “and” joins values, the source holds several entries; their conditions need not be identical. Equal values may be shown once.
Tests used:
SRPK3 = SRPK3 (Homo sapiens, UniProt Q9UPE1); assay: biochemical; details: read-out: %Ctrl @ 2000nM
MARK3 = MARK3 (Homo sapiens, UniProt P27448); assay: biochemical; details: read-out: %Ctrl @ 2000nM
CSF1R = CSF1R (Homo sapiens, UniProt P07333); assay: biochemical; details: read-out: %Ctrl @ 2000nM
MELK = MELK (Homo sapiens, UniProt Q14680); assay: biochemical; details: read-out: %Ctrl @ 2000nM
DAPK2 = DAPK2 (Homo sapiens, UniProt Q9UIK4); assay: biochemical; details: read-out: %Ctrl @ 2000nM
RIPK5 = RIPK5 (Homo sapiens, UniProt Q6XUX3); assay: biochemical; details: read-out: %Ctrl @ 2000nM
BRAF(V600E) = BRAF(V600E) (Homo sapiens, UniProt P15056, V600E); assay: biochemical; details: read-out: %Ctrl @ 2000nM
[1] = biological target: RSK4(Kin.Dom.1-N-terminal) (Homo sapiens, UniProt Q9UK32); assay: biochemical; details: read-out: %Ctrl @ 2000nM
caspase-3 in 786-O cells = details: 72 h, compounds at 20 μM
[2] = system: AKT (S129) in 786-O cells
p21 (T145) = details: HEK293 cells; 48 h
NEK10 = NEK10 (Homo sapiens, UniProt Q6ZWH5); assay: biochemical; details: read-out: %Ctrl @ 2000nM
TRKC = TRKC (Homo sapiens, UniProt Q16288); assay: biochemical; details: read-out: %Ctrl @ 2000nM
SNARK = SNARK (Homo sapiens, UniProt Q9H093); assay: biochemical; details: read-out: %Ctrl @ 2000nM
PIM1 = PIM1 (Homo sapiens, UniProt P11309); assay: biochemical; details: read-out: %Ctrl @ 2000nM
BRSK2 = BRSK2 (Homo sapiens, UniProt Q8IWQ3); assay: biochemical; details: read-out: %Ctrl @ 2000nM
FGR = FGR (Homo sapiens, UniProt P09769); assay: biochemical; details: read-out: %Ctrl @ 2000nM
CAMK2B = CAMK2B (Homo sapiens, UniProt Q13554); assay: biochemical; details: read-out: %Ctrl @ 2000nM
[3] = biological target: RSK4(Kin.Dom.2-C-terminal) (Homo sapiens, UniProt Q9UK32); assay: biochemical; details: read-out: %Ctrl @ 2000nM
FAK = FAK (Homo sapiens, UniProt Q05397); assay: biochemical; details: read-out: %Ctrl @ 2000nM
TNK1 = TNK1 (Homo sapiens, UniProt Q13470); assay: biochemical; details: read-out: %Ctrl @ 2000nM
IRAK3 = IRAK3 (Homo sapiens, UniProt Q9Y616); assay: biochemical; details: read-out: %Ctrl @ 2000nM
MEK2 = MEK2 (Homo sapiens, UniProt P36507); assay: biochemical; details: read-out: %Ctrl @ 2000nM
BMPR1B = BMPR1B (Homo sapiens, UniProt O00238); assay: biochemical; details: read-out: %Ctrl @ 2000nM
WNK3 = WNK3 (Homo sapiens, UniProt Q9BYP7); assay: biochemical; details: read-out: %Ctrl @ 2000nM
CSNK1E = CSNK1E (Homo sapiens, UniProt P49674); assay: biochemical; details: read-out: %Ctrl @ 2000nM
TLK2 = TLK2 (Homo sapiens, UniProt Q86UE8); assay: biochemical; details: read-out: %Ctrl @ 2000nM
MLCK = MLCK (Homo sapiens, UniProt Q32MK0); assay: biochemical; details: read-out: %Ctrl @ 2000nM
LZK = LZK (Homo sapiens, UniProt O43283); assay: biochemical; details: read-out: %Ctrl @ 2000nM
CDK7 = CDK7 (Homo sapiens, UniProt P50613); assay: biochemical; details: read-out: %Ctrl @ 2000nM
RIPK4 = RIPK4 (Homo sapiens, UniProt P57078); assay: biochemical; details: read-out: %Ctrl @ 2000nM
EGFR(G719C) = EGFR(G719C) (Homo sapiens, UniProt P00533, G719C); assay: biochemical; details: read-out: %Ctrl @ 2000nM
PIKFYVE = PIKFYVE (Homo sapiens, UniProt Q9Y2I7); assay: biochemical; details: read-out: %Ctrl @ 2000nM
MKK7 = MKK7 (Homo sapiens, UniProt O14733); assay: biochemical; details: read-out: %Ctrl @ 2000nM
KIT(D816H) = KIT(D816H) (Homo sapiens, UniProt P10721, D816H); assay: biochemical; details: read-out: %Ctrl @ 2000nM
MAPKAPK5 = MAPKAPK5 (Homo sapiens, UniProt Q8IW41); assay: biochemical; details: read-out: %Ctrl @ 2000nM
YANK2 = YANK2 (Homo sapiens, UniProt Q9NY57); assay: biochemical; details: read-out: %Ctrl @ 2000nM
PIP5K2C = PIP5K2C (Homo sapiens, UniProt Q8TBX8); assay: biochemical; details: read-out: %Ctrl @ 2000nM
ITK = ITK (Homo sapiens, UniProt Q08881); assay: biochemical; details: read-out: %Ctrl @ 2000nM
MINK = MINK (Homo sapiens, UniProt Q8N4C8); assay: biochemical; details: read-out: %Ctrl @ 2000nM
[4] = system: tumor slices of clear cell renal carcinoma (786-O-luc xenograft); details: 10 μM CX-4945, 5 μM AB668
LKB1 = LKB1 (Homo sapiens, UniProt Q15831); assay: biochemical; details: read-out: %Ctrl @ 2000nM
FLT3(D835H) = FLT3(D835H) (Homo sapiens, UniProt P36888, D835H); assay: biochemical; details: read-out: %Ctrl @ 2000nM

Sequence of BRSK2 (Q8IWQ3 whole entry): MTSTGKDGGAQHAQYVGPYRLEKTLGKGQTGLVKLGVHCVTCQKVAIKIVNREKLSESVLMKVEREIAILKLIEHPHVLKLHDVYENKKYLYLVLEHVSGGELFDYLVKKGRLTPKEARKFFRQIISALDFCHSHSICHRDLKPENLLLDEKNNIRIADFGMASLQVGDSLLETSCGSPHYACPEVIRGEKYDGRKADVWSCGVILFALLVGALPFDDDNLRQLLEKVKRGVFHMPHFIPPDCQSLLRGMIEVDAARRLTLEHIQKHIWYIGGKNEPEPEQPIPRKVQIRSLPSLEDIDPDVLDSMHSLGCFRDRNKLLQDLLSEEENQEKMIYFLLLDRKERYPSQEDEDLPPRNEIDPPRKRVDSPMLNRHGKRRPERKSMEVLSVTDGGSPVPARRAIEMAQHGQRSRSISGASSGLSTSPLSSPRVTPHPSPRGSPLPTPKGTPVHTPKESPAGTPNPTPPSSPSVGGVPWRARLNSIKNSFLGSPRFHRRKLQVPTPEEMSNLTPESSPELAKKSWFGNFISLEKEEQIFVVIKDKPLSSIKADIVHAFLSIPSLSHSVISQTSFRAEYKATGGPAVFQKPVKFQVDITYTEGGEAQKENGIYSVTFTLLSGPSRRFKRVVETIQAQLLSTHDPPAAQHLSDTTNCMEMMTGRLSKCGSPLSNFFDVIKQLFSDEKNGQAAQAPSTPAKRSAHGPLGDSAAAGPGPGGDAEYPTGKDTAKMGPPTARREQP
Sequence of LKB1 (Q15831 whole entry): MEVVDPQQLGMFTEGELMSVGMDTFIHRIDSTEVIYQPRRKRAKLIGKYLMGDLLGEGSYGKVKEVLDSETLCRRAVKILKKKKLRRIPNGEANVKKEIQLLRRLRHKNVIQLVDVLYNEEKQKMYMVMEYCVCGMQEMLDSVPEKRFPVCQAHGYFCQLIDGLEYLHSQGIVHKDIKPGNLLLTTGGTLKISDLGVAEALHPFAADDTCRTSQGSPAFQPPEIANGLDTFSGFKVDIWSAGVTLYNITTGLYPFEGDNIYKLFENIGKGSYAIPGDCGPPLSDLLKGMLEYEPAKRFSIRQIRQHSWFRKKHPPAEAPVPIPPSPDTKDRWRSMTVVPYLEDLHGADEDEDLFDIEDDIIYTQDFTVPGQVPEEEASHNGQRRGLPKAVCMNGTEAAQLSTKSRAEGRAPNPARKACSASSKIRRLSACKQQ
Sequence of WNK3 (Q9BYP7 whole entry): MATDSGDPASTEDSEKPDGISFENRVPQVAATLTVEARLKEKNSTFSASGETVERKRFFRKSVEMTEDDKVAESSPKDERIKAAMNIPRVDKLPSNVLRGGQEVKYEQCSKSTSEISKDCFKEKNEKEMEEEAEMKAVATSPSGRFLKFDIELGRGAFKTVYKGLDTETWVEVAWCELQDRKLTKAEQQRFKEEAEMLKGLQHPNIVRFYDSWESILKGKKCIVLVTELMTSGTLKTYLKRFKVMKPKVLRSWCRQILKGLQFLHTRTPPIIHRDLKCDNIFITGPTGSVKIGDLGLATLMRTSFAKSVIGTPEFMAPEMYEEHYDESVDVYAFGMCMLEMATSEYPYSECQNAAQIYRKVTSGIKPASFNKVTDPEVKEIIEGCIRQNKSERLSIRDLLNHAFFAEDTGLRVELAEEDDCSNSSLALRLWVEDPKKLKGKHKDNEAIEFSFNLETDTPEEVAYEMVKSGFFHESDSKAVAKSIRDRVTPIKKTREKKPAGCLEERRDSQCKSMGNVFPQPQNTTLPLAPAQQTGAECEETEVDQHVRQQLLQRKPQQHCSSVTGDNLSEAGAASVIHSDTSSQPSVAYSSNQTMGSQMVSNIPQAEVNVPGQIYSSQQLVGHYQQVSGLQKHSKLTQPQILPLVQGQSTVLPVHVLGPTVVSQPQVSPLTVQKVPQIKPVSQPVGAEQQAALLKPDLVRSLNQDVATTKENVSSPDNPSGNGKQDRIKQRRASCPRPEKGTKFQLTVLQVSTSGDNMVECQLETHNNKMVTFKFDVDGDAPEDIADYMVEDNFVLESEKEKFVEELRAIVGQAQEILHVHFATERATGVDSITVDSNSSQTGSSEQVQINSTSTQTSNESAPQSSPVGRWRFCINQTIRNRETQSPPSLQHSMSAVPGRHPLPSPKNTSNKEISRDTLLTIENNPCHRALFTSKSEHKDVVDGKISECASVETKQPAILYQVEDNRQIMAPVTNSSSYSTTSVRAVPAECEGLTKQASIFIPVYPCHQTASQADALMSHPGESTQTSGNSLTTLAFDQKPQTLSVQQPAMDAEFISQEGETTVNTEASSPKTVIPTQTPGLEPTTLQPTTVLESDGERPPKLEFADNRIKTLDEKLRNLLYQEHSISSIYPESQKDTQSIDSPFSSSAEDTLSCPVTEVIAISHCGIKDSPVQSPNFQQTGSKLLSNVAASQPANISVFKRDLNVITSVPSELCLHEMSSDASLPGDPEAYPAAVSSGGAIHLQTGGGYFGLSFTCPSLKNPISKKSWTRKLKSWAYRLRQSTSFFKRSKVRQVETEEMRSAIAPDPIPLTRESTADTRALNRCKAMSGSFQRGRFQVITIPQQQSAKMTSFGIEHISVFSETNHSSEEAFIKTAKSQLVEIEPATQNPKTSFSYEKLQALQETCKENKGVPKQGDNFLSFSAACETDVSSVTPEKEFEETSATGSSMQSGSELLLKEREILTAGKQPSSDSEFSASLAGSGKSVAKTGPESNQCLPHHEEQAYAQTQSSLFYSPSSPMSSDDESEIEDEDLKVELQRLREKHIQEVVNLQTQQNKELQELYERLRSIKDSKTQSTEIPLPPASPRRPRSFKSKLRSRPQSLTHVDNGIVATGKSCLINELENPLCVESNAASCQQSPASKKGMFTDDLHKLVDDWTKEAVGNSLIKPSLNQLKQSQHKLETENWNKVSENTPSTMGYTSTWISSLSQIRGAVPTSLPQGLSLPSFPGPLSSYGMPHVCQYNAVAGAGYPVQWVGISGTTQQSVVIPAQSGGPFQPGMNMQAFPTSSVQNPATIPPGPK
Sequence of CDK7 (P50613 whole entry): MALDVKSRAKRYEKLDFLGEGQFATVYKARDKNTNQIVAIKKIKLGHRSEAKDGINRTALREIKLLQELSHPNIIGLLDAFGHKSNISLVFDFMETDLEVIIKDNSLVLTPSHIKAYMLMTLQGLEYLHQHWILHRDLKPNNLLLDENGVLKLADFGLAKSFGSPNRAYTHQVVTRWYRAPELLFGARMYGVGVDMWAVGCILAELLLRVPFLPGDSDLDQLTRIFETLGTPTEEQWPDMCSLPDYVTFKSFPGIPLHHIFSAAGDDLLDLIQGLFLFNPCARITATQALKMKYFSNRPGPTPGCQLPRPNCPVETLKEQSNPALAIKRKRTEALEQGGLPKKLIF
Sequence of SNARK (Q9H093 whole entry): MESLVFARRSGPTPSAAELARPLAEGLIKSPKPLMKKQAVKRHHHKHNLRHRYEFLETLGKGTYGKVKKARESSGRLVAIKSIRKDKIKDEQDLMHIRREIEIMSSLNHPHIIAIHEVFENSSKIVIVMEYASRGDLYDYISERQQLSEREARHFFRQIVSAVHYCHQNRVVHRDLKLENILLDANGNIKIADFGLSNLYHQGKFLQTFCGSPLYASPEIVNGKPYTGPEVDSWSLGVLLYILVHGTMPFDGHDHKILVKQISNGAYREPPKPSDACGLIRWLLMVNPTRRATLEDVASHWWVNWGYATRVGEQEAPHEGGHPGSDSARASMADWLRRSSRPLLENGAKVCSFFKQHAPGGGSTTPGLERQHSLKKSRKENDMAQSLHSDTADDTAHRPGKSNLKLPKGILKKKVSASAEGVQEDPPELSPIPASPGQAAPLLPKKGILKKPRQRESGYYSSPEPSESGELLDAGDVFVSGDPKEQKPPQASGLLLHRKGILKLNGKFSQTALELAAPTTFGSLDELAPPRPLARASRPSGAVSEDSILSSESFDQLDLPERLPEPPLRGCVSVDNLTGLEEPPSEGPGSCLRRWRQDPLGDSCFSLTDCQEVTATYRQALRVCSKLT
Sequence of FAK (Q05397 whole entry): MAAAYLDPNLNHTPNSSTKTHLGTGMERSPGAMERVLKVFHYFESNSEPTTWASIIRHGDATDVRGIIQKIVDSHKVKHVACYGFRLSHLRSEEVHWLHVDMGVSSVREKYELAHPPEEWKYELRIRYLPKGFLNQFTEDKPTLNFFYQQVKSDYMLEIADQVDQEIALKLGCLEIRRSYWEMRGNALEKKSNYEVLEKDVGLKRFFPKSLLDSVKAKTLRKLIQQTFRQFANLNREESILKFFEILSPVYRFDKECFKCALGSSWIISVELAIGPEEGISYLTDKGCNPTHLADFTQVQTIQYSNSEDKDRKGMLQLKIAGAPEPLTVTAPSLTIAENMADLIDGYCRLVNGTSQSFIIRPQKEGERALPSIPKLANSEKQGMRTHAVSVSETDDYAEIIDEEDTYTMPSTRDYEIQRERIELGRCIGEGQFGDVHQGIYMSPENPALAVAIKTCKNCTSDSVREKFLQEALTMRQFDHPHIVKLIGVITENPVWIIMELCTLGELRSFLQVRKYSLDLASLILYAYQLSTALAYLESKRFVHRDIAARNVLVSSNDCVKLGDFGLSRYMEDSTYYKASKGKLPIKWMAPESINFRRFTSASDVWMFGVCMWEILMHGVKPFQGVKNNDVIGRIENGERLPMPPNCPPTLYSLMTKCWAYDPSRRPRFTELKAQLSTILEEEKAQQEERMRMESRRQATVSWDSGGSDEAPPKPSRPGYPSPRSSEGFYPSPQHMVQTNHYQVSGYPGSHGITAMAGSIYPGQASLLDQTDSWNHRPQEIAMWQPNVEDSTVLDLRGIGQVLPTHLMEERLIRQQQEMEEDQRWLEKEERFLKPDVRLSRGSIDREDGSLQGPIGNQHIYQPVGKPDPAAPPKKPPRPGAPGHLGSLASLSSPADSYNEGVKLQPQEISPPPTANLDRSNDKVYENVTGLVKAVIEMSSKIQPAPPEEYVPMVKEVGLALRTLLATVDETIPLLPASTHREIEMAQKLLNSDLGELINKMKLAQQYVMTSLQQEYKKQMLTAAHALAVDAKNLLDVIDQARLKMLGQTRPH

## CC(C)COC(=O)c1[nH]c2ccc(F)cc2c1-c1cn(CC2CCN(CCNS(=O)(=O)c3ccc(CC(C)C)cc3)CC2)nn1 [AB668, isobutyl 5-fluoro-3-(1-((1-(2-((4-isobutylphenyl)sulfonamido)ethyl)piperidin-4-yl)methyl)-1H-1,2,3-triazol-4-yl)-1H-indole-2-carboxylate]
SRPK3
  remaining activity at 2 µM: 100%
MARK3
  remaining activity at 2 µM: 0%
CSF1R
  remaining activity at 2 µM: 100%
MELK
  remaining activity at 2 µM: 100%
DAPK2
  remaining activity at 2 µM: 71%
RIPK5
  remaining activity at 2 µM: 95%
BRAF(V600E)
  remaining activity at 2 µM: 100%
[1]
  remaining activity at 2 µM: 88%
caspase-3 in 786-O cells
  caspase-3 activation: induced caspase-3 activation
[2]
  pAKTS129 / AKT band quantification: 0.8 and 0.5
p21 (T145)
  p21 phosphorylation: weakly affected
NEK10
  remaining activity at 2 µM: 80%
TRKC
  remaining activity at 2 µM: 100%
SNARK
  remaining activity at 2 µM: 94%
PIM1
  remaining activity at 2 µM: 91%
BRSK2
  remaining activity at 2 µM: 79%
FGR
  remaining activity at 2 µM: 72%
CAMK2B
  remaining activity at 2 µM: 96%
[3]
  remaining activity at 2 µM: 94%
FAK
  remaining activity at 2 µM: 91%
TNK1
  remaining activity at 2 µM: 96%
IRAK3
  remaining activity at 2 µM: 86%
MEK2
  remaining activity at 2 µM: 96%
BMPR1B
  remaining activity at 2 µM: 100%
WNK3
  remaining activity at 2 µM: 98%
CSNK1E
  remaining activity at 2 µM: 66%
TLK2
  remaining activity at 2 µM: 88%
MLCK
  remaining activity at 2 µM: 100%
LZK
  remaining activity at 2 µM: 100%
CDK7
  remaining activity at 2 µM: 98%
RIPK4
  remaining activity at 2 µM: 100%
EGFR(G719C)
  remaining activity at 2 µM: 83%
PIKFYVE
  remaining activity at 2 µM: 1.7%
MKK7
  remaining activity at 2 µM: 82%
KIT(D816H)
  remaining activity at 2 µM: 58%
MAPKAPK5
  remaining activity at 2 µM: 95%
YANK2
  remaining activity at 2 µM: 76%
PIP5K2C
  remaining activity at 2 µM: 81%
ITK
  remaining activity at 2 µM: 93%
MINK
  remaining activity at 2 µM: 100%
[4]
  cell viability of tumor slices: significantly reduced cell viability
LKB1
  remaining activity at 2 µM: 89%
FLT3(D835H)
  remaining activity at 2 µM: 89%
